{"source": "paper PMC5132392", "about": "“Identification of a Highly Conserved Hypothetical Protein TON_0340 as a Probable Manganese-Dependent Phosphatase” (PLoS ONE, 2016)", "molecular_target": "T1, TON_0340 (Thermococcus onnurineus, UniProt B6YTD8)", "T1 construct": "C-terminal CPD-(His)10 fusion auto-cleaved with phytate; E. coli BL21(DE3) RIPL; assay sample from dissolved crystals, EDTA-treated", "T1 sequence (B6YTD8 1-268)": "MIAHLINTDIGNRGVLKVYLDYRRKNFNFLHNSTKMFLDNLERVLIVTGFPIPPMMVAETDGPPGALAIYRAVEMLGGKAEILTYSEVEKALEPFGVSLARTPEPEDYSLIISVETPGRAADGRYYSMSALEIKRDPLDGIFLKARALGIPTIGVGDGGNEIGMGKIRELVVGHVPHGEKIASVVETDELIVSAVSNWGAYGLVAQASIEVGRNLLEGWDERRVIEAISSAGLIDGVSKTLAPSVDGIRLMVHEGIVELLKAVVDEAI", "assay": "inorganic phosphate release (EnzChek / malachite green)", "format": "biochemical", "details": "2 mM AMP, 2 mM MnCl2, 100 mM HEPES pH 7.5, 100 mM NaCl, 37°C; Mn2+-dependent", "data": [{"smiles": "Nc1ncnc2c1ncn2[C@@H]1O[C@H](COP(=O)(O)O)[C@@H](O)[C@H]1O", "note": "[AMP]", "values": [{"measurement": "inorganic phosphate release (EnzChek / malachite green)", "result": "The highest activity was observed with AMP"}]}]}
